Twelve molecules from US6872805B2 (Bristol-Myers Squibb Company, priority 2000, dated 2005) can be followed below.

Assay [1] deals with HCV NS3/4A protease complex (Hepatitis C virus genotype 1a, UniProt P27958, C1454S/C1711G). In words: Recombinant HCV NS3/4A protease complex FRET peptide assay (strain not stated). Type of assay: biochemical. Conditions: strain not stated, activity ranges. From the text: The purpose of this in vitro assay was to measure the inhibition of HCV NS3 protease complexes, derived from the BMS, H77C or J416S strains, as described below, by compounds of the present invention.
Sequence of HCV NS3/4A protease complex (P27958 1027-1711, stated change not applied): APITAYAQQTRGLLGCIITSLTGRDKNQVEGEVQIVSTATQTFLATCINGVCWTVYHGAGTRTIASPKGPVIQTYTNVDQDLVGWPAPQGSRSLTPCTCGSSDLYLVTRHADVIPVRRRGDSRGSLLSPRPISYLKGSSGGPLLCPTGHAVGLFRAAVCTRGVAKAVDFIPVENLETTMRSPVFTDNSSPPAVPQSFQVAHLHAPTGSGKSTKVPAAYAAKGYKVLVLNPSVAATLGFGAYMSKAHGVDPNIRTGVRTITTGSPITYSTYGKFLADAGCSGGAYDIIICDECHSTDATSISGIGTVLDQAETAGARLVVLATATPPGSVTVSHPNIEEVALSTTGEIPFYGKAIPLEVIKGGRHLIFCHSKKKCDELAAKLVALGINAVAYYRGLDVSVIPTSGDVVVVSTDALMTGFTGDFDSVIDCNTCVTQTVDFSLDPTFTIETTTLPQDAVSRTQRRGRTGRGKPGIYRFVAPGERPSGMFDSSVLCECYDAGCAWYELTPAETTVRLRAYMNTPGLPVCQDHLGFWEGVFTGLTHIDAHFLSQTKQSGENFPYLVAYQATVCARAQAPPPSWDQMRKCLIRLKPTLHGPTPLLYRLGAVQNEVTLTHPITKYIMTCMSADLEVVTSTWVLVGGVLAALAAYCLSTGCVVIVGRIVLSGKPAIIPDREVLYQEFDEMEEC
Sequence of HCV NS3/4A protease complex (P27958 1027-1711, stated change not applied): as above
Serum from an HCV-infected patient was obtained from Dr. T. Wright, San Francisco Hospital. An engineered full-length cDNA template of the HCV genome (BMS strain) was constructed from DNA fragments obtained by reverse transcription-PCR (RT-PCR) of serum RNA and using primers selected on the basis of homology between other genotype 1a strains. […] The infectious clones, H77C (1a genotype) and J4L6S (1b genotype) were obtained from R. Purcell (NIH) and the sequences are published in genebank (AAB67036, see Yanagi, M., Purcell, R. H., Emerson, S. U. and Bukh, J. Proc. Natl. Acad. Sci. U.S.A. 94(16),8738-8743 (1997); AF054247, see Yanagi, M., St Claire, M., Shapiro, M., Emerson, S. U., Purcell, R. H. and Bukh, J, Virology 244 (1), 161-172. (1998)).
The BMS, H77C and J4L6S strains were used for production of recombinant NS3/4A protease complexes. DNA encoding the recombinant HCV NS3/4A protease complex (amino acid 1027 to 1711) for these strains were manipulated as described by P. Gallinari et al. (see Gallinari P, Paolini C, Brennan D, Nardi C, Steinkuhler C, De Francesco R. Biochemistry. 38(17):5620-32, (1999)). Briefly, a three-lysine solubilizing tail was added at the 3′-end of the NS4A coding region. The cysteine in the P1 position of the NS4A-NS4B cleavage site (amino acid 1711) was changed to a glycine to avoid the proteolytic cleavage of the lysine tag. Furthermore, a cysteine to serine mutation was introduced by PCR at amino acid position 1454 to prevent the autolytic cleavage in the NS3 helicase domain. The variant DNA fragment was cloned in the pET21b bacterial expression vector and the NS3/4A complex was expressed in E. coli BL21 (DE3) following the protocol described by P. Gallinari et al. (see Gallinari P, Brennan D, Nardi C, Brunetti M, Tomei L, Steinkuhler C, De Francesco R., J Virol. 72(8):6758-69 (1998)) with modifications. Briefly, NS3/4A expression was induced with 0.5 mM IPTG for 22 hr at 20° C. […] The cells were resuspended in lysis buffer (10 mL/g) consisting of 25 mM HEPES, pH 7.5, 20% glycerol, 500 mM NaCl, 0.5% Triton-X100, 1 ug/ml lysozyme, 5 mM MgCl2, 1 ug/ml DNaseI 5 mM β-Mercaptoethanol (βME), Protease inhibitor—EDTA free, homogenized and incubated for 20 mins at 4° C. The homogenate was sonicated and clarified by ultra-centrifugation at 235000 g for 1 hr at 4° C. Imidazole was added to the supernatant to a final concentration of 15 mM and the pH adjusted to 8.0. The crude protein extract was loaded on a Ni-NTA column pre-equilibrated with buffer B (25 mM HEPES, pH 8.0, 20% glycerol, 500 mM NaCl, 0.5% Triton-X100, 15 mM imidazole, 5 mM βME). The sample was loaded at a flow rate of 1 mL/min. The column was washed with 15 column volumes of buffer C (same as buffer B except with 0.2% Triton-X100). The protein was eluted with 5 column volumes of 200 mM Imidazole in buffer.
NS3/4A protease complex-containing fractions were pooled and loaded on a desalting column Superdex-S200 pre-equilibrated with buffer D (25 mM HEPES, pH 7.5, 20% glycerol, 300 mM NaCl, 0.2% Triton-X100, 10 mM βME). Sample was loaded at a flow rate of 1 mL/min. NS3/4A protease complex-containing fractions were pooled and concentrated to approximately 0.5 mg/ml.

For assay [2], the system named is HCV replicon in Huh7 cells. In words: HCV replicon cell-based assay. On the set-up: species or system HCV strain 1B. Conditions: HCV replicon, Huh7 cells, 4 days, activity ranges, read-out: EC50. From the text: An HCV replicon whole cell system was established as described by Lohmann V, Korner F, Koch J, Herian U, Theilmann L, Bartenschlager R., Science 285(5424):110-3 (1999). This system enabled us to evaluate the effects of our HCV Protease compounds on HCV RNA replication. Briefly, using the HCV strain 1B sequence described in the Lohmann paper (Assession number:AJ238799), an HCV cDNA was generated encoding the 5′ internal ribosome entry site (IRES), the neo gene, the EMCV-IRES and the HCV nonstructural proteins, NS3-NS5B, and 3′ NTR. […] Resulting cell lines were characterized for positive and negative RNA production and protein production over time.
Huh7 cells, constitutively expressing the HCV replicon, were grown in DMEM containing 10% FCS (Fetal calf serum) and 1 mg/ml G418 (Gibco-BRL). Cells were seeded the night before (1.5×10^4 cells/well) in 96-well tissue-culture sterile plates. Compound was prepared in DMEM containing 4% FCS, 1:100 Penicillin/Streptomysin, 1:100 L-glutamine and 0.5% DMSO. Compound/DMSO mixes were added to the cells and incubated for 4 days at 37° C. After 4 days, cells were either lyzed using the Rneasy kit (Qiagen) to isolate and purify RNA for an EC50 determination or assessed for cytotoxicity using alamar Blue (Trek Diagnotstic Systems) for a CC50 reading. For an EC50 determination, purified total RNA was normalized using RiboGreen (Jones L J, Yue S T, Cheung C Y, Singer V L, Anal. Chem., 265(2):368-74 (1998)) and relative quantitation of HCV RNA expression assessed using the Taqmann procedure (Kolykhalov A A, Mihalik K, Feinstone S M, Rice C M, Journal of Virology 74, 2046-2051 (2000)). Briefly, RNA made to a volume of 5 μl (≦1 ng) was added to a 20 μl Ready-Mix containing the following: 5×EZ rTth buffer, 3 mM MnOAc2, 3 mM dNTPs, 200 nM forward primer, 600 nM reverse primer, 100 nM probe and rTth polymerase. Samples containing known concentrations of HCV RNA transcript were run as standards. Using the following cycling protocol (95° C., 1 min; 60° C., 0.5 min; 95° C., 2 min; 40 cycles of 94° C., 0.5 min, 60° C.; 1 min; and completing with 60° C., 10 min), HCV RNA expression was quantitated as described in the Perkin Elmer manual. The toxicity of compound (CC50) was determined by adding 1/10th volume of alamar Blue to the media incubating the cells. After 4 hr, the fluorescence signal from each well was read, with an excitation wavelength at 530 nm and an emission wavelength of 580 nm, using the Cytofluor Series 4000 (Perspective Biosystems).

The mark [3] stands for this setting: IC50, NS3/4A protease enzyme assay.

Like-named read-outs stand apart in the source and are kept apart here.

Take `C=C[C@@H]1C[C@]1(NC(=O)C1C[C@@H](Oc2cc(-c3ccccc3)nc3cc(OC)ccc23)CN1C(=O)[C@@H](NC(=O)OCCCC)C(C)(C)C)C(=O)NS(=O)(=O)C1CC1` (stereo partly drawn) [Compound 127, {1S-[2S-(1R-cyclopropanesulfonylaminocarbonyl-2S-vinyl-cyclopropylcarbamoyl)-4R-(7-methoxy-2-phenyl-quinolin-4-yloxy)-pyrrolidine-1-carbonyl]-2,2-dimethyl-propyl}-carbamic acid butyl ester]: the IC50 in assay [1] (setting [3]) was less than 50 nM. Moreover, the EC50 in assay [2] (Hepatitis C virus, Huh-7, 96 h) is less than 50 nM.

As to `CCC1C[C@]1(NC(=O)[C@@H]1C[C@@H](Oc2cc(-c3ccccc3)nc3cc(OC)ccc23)CN1C(=O)[C@@H](NC(=O)OC(C)(C)C)C(C)(C)C)C(=O)NS(=O)(=O)C1CC1` (stereo in doubt) [Compound 2, {1-[2-(1-cyclopropanesulfonylamino-carbonyl-2-ethylcyclopropylcarbamoyl)-4-(7-methoxy-2-phenyl-quinolin-4-yloxy)-pyrrolidine-1-carbonyl]-2,2-dimethylpropyl}carbamic acid tert-butyl ester], in assay [1] (setting [3]), the IC50 is less than 50 nM. For the same molecule, in assay [2] (Hepatitis C virus, Huh-7, 96 h), the EC50 was less than 50 nM.

`C=C[C@@H]1C[C@]1(NC(=O)C1C[C@@H](Oc2cc(-c3ccccc3)nc3cc(OC)ccc23)CN1C(=O)[C@@H](Nc1ccncc1[N+](=O)[O-])C(C)(C)C)C(=O)NS(=O)(=O)C1CC1` (stereo partly drawn) [Compound 129, 1-[3,3-dimethyl-2S-(3-nitropyridin-4-ylamino)-butyryl]-4R-(7-methoxy-2-phenylquinolin-4-yloxy)-pyrrolidine-2S-carboxylic acid (1R-cyclopropanesulfonylaminocarbonyl-2S-vinylcyclopropyl)amide]: in assay [1] (setting [3]), the IC50 is less than 5000 nM. Also, in assay [2] (Hepatitis C virus, Huh-7, 96 h), the EC50 was less than 50000 nM.

In the case of `C=CC1C[C@]1(NC(=O)[C@@H]1C[C@@H](Oc2cc(-c3ccccc3)nc3cc(OC)ccc23)CN1C(=O)[C@@H](NC(=O)OC(C)(C)C)C1CCCC1)C(=O)NS(=O)(=O)C(C)C` (stereo partly drawn) [Compound 30], in assay [1] (setting [3]), the IC50 was less than 50 nM. Moreover, the EC50 in assay [2] (Hepatitis C virus, Huh-7, 96 h) is less than 50 nM.

On to `C=CC1CC1(NC(=O)[C@@H]1C[C@@H](Oc2cc(-c3ccccc3)nc3cc(OC)ccc23)CN1C(=O)[C@@H](NC(=O)OC(C)(C)C)C(C)(C)C)C(=O)NS(C)(=O)=O` (stereo partly drawn) [Compound 86], for which the IC50 in assay [1] (setting [3]) was less than 50 nM. In assay [2] (Hepatitis C virus, Huh-7, 96 h), the EC50 was less than 500 nM.

Consider `C=CC1C[C@]1(NC(=O)[C@@H]1C[C@@H](Oc2cc(-c3ccccc3)nc3cc(OC)ccc23)CN1C(=O)[C@@H](NC(=O)OC(C)(C)C)C(C)C)C(=O)NS(=O)(=O)C1CC1` (stereo partly drawn) [Compound 31], for which the IC50 in assay [1] (setting [3]) is less than 50 nM. Besides, in assay [2] (Hepatitis C virus, Huh-7, 96 h), the EC50 was less than 50 nM.

With `C=CC1CC1(NC(=O)OC(C)(C)C)C(=O)N1C[C@H](Oc2cc(-c3ccccc3)nc3cc(OC)ccc23)C[C@H]1C(=O)N[C@]1(C(=O)NS(=O)(=O)C2CC2)CC1CC` (stereo partly drawn) [Compound 69], the IC50 in assay [1] (setting [3]) is less than 500 nM. Besides, the EC50 in assay [2] (Hepatitis C virus, Huh-7, 96 h) was less than 500 nM.

In the case of “1-[2S-(4-fluoro-benzenesulfonylamino)-3,3-dimethyl-butyryl]-4R-(7-methoxy-2-phenylquinolin-4-yloxy)-pyrrolidine-2S-carboxylic acid (1R-cyclopropanesulfonylaminocarbonyl -2S-vinyl-cyclopropyl)amide [Compound 119]”, the IC50 in assay [1] (NS3/4A protease enzyme assay, read-out: IC50) is less than 50 nM. The EC50 in assay [2] was less than 500 nM.

Regarding `C=C[C@@H]1C[C@]1(NC(=O)C1C[C@@H](Oc2cc(-c3ccccc3)nc3cc(OC)ccc23)CN1C(=O)[C@@H](NC(=O)COC)C(C)(C)C)C(=O)NS(=O)(=O)C1CC1` (stereo partly drawn) [Compound 107, 1-[2S-(2-methoxy-acetylamino)-3,3-dimethyl-butyryl]-4R-(7-methoxy-2-phenyl-quinolin-4-yloxy)-pyrrolidine-2S-carboxylic acid (1R-cyclopropanesulfonylamino-carbonyl-2S-vinyl-cyclopropyl)-amide], the IC50 in assay [1] (setting [3]) was less than 50 nM. Further, the EC50 in assay [2] (Hepatitis C virus, Huh-7, 96 h) is less than 500 nM.

As to `C=CCC[C@](C)(NC(=O)[C@@H]1C[C@@H](Oc2cc(-c3ccccc3)nc3cc(OC)ccc23)CN1C(=O)C(NC(=O)OC(C)(C)C)C(C)(C)C)C(=O)NS(=O)(=O)c1ccc(C#N)cc1` (stereo partly drawn) [Compound 41], in assay [1] (setting [3]), the half-inhibitory concentration (IC50) was less than 50 nM. In assay [2] (Hepatitis C virus, Huh-7, 96 h), the EC50 was less than 500 nM.

On to `C=COC(=O)N[C@H](C(=O)N1C[C@H](Oc2cc(-c3ccccc3)nc3cc(OC)ccc23)CC1C(=O)N[C@]1(C(=O)NS(=O)(=O)C2CC2)C[C@H]1C=C)C(C)(C)C` (stereo partly drawn) [Compound 123, {1S-[2S-(1R-cyclopropanesulfonylaminocarbonyl-2S-vinyl-cyclopropylcarbamoyl)-4R-(7-methoxy-2-phenyl-quinolin-4-yloxy)-pyrrolidine-1-carbonyl]-2,2-dimethyl-propyl}-carbamic acid vinyl ester], for which, in assay [1] (setting [3]), the half-maximal inhibitory concentration (IC50) was less than 50 nM. In assay [2] (Hepatitis C virus, Huh-7, 96 h), the EC50 was less than 50 nM.

For `C=CC1C[C@]1(NC(=O)[C@@H]1C[C@@H](Oc2cc(-c3ccccc3)nc3cc(OC)ccc23)CN1C(=O)[C@@H](NC(=O)OC(C)(C)C)C(C)(C)C)C(=O)NS(=O)(=O)c1cccc([N+](=O)[O-])c1` (stereo partly drawn) [Compound 53], the IC50 in assay [1] (setting [3]) is less than 50 nM. Moreover, the EC50 in assay [2] (Hepatitis C virus, Huh-7, 96 h) was less than 50000 nM.
